The values below come from ChEMBL document CHEMBL4334516, “Kinase Chemodiversity from the Arctic: The Breitfussins” (J Med Chem, 2019).

A short description of series [1]: Toxicity in zebrafish embryos assessed as survival at 140 uM after 72 hrs (reference value: 95%). Also noted: species or system Danio rerio. Particulars: in vivo.
The test system of another series is MDA-MB-231. The series can be described thus: Cytotoxicity in human MDA-MB-231 cells assessed as reduction in cell viability incubated for 72 hrs by SRB assay. Particulars: MDA-MB-231, 72 h. A general note: Sulforhodamine B stains cellular protein and so reports cell mass.
A short description of series [2]: Intrinsic clearance in mouse liver microsomes at 3 uM measured up to 50 mins by LC-MS analysis. Type of series: ADME, Microsome. Particulars: read-out: CLH. (Liver microsomes are vesicles of endoplasmic reticulum, rich in cytochrome P450 enzymes.)
The target in series [3] is Receptor-interacting serine/threonine-protein kinase 2 (Homo sapiens, UniProt O43353). The series can be described thus: Inhibition of RIPK2 (unknown origin) assessed as residual enzyme activity at 50 uM by [33P]-ATP filter binding kinase assay relative to control.
Sequence of Receptor-interacting serine/threonine-protein kinase 2 (O43353 whole entry, the tested form may be a part): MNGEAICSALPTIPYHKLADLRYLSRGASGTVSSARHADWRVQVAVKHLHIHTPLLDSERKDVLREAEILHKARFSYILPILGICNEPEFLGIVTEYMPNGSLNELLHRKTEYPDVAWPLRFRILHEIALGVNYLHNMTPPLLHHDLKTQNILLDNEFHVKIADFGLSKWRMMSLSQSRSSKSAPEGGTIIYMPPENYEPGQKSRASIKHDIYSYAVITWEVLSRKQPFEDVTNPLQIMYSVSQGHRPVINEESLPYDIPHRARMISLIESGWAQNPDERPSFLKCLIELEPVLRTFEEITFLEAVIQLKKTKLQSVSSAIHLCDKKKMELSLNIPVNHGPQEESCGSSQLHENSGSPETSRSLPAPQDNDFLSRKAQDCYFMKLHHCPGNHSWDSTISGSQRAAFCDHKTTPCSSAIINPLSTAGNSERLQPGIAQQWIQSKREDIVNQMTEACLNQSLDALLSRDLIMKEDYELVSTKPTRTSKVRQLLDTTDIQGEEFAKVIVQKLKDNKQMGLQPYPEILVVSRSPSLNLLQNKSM
Series [4] addresses T1, Serine/threonine-protein kinase pim-2 (Homo sapiens, UniProt Q9P1W9). The series can be described thus: Binding affinity to wild-type human partial length PIM2 (M1 to E291 residues) expressed in bacterial expression system assessed as residual binding level at 10 uM by active-site directed competition binding assay based Kinomescan method relative to control.
Another series deals with Aurora kinase B (Homo sapiens, UniProt Q96GD4). The series can be described thus: Inhibition of Aurora B (unknown origin) assessed as residual enzyme activity at 1 uM by [33P]-ATP filter binding kinase assay relative to control.
Sequence of Aurora kinase B (Q96GD4 whole entry, the tested form may be a part): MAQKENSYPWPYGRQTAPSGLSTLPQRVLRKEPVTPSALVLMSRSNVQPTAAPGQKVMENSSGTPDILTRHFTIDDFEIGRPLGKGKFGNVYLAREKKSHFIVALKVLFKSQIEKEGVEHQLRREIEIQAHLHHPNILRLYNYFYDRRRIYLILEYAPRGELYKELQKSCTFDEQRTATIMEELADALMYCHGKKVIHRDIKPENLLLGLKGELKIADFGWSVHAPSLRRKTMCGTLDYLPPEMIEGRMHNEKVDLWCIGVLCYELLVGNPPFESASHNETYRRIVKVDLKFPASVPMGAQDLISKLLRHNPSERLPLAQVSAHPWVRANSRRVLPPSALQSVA
Series [5] has as its target Serine/threonine-protein kinase pim-3 (Homo sapiens, UniProt Q86V86). The series is described as follows: Binding affinity to wild-type human partial length PIM3 (G16 to A317 residues) expressed in bacterial expression system assessed as residual binding level at 10 uM by active-site directed competition binding assay based Kinomescan method relative to control.
In the next series the test system is JIMT-1. The series can be described thus: Cytotoxicity in human JIMT1 cells assessed as reduction in cell viability incubated for 72 hrs by SRB assay. Particulars: JIMT-1, 72 h.
A further series concerns NCI-H460. The series is described as follows: Cytotoxicity in human NCI-H460 cells assessed as reduction in cell viability incubated for 72 hrs by SRB assay. Particulars: NCI-H460, 72 h.
The next series relates to HT-29. The series can be described thus: Cytotoxicity in human HT-29 cells assessed as reduction in cell viability by MTS assay. Format: functional, cell-based. Particulars: TDE = time-dependent effect. A general note: Formazan colour is commonly taken as a measure of viable cells.
Series [6] is described as follows: Toxicity in zebrafish embryos assessed as induction of heart edema by measuring unaffected embryos level at 1.4 uM after 72 hrs (reference value: 100%). Format: tissue-based, Danio rerio. Particulars: in vivo.
Series [7] can be described thus: Toxicity in zebrafish embryos assessed as induction of general edema by measuring unaffected embryos level at 1.4 uM after 72 hrs (reference value: 100%). More on the design: species or system Danio rerio. Particulars: in vivo.
The target of series [8] is T1, Serine/threonine-protein kinase pim-2. The series can be described thus: Binding affinity to wild-type human partial length PIM2 (M1 to E291 residues) expressed in bacterial expression system assessed as residual binding level at 10 uM by active-site directed competition binding assay based Kinomescan method.
Series [9] in a line: Toxicity in zebrafish embryos assessed as induction of heart edema by measuring unaffected embryos level at 0.1 uM after 72 hrs (reference value: 100%). Type of series: tissue-based, Danio rerio. Particulars: in vivo.
The target of series [10] is Mitogen-activated protein kinase kinase kinase 11 (Homo sapiens, UniProt Q16584). The series can be described thus: Inhibition of MLK3 (unknown origin) assessed as residual enzyme activity at 1 uM by [33P]-ATP filter binding kinase assay relative to control.
Sequence of Mitogen-activated protein kinase kinase kinase 11 (Q16584 whole entry, looked up): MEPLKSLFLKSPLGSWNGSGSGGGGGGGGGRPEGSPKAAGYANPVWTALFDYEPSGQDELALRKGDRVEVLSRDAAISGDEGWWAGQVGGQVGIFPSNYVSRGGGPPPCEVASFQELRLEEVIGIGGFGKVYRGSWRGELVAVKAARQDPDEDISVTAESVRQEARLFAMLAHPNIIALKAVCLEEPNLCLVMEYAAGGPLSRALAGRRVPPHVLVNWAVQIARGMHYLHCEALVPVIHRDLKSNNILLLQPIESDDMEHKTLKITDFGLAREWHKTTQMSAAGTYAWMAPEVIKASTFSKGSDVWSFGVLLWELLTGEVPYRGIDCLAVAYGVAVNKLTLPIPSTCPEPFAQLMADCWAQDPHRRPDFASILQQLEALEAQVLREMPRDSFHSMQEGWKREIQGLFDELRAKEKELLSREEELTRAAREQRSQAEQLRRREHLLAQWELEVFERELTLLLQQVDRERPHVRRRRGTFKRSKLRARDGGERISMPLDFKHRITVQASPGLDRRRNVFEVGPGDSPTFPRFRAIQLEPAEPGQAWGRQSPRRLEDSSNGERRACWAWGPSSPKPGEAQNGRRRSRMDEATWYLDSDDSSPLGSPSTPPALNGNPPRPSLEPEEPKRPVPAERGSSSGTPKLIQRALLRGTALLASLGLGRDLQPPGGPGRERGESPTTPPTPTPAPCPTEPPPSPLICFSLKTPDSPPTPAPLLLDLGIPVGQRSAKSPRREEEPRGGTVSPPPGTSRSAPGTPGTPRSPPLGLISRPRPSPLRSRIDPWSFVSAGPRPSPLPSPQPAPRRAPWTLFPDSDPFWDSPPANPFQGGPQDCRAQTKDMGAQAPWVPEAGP
Series [11] has as its target T2, Mitogen-activated protein kinase kinase kinase 7 (Homo sapiens) (UniProt O43318).
T2 sequence (whole entry): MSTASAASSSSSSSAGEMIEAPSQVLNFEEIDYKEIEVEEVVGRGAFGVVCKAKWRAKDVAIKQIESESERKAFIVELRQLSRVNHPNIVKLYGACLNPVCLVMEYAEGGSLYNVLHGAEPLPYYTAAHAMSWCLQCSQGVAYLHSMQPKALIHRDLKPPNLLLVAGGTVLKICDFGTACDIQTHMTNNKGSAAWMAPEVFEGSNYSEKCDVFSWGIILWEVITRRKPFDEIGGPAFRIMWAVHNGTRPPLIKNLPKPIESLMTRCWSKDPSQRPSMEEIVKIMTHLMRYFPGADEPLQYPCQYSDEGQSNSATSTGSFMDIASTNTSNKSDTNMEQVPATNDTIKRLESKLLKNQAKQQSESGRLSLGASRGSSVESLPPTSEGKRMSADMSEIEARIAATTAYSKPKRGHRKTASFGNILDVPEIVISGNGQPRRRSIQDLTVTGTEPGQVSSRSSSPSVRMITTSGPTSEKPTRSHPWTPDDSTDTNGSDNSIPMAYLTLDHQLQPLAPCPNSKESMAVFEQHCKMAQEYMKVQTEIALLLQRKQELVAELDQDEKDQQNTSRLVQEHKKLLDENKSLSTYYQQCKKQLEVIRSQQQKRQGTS
The series can be described thus: Inhibition of TAK1 (unknown origin) assessed as residual enzyme activity at 50 uM by [33P]-ATP filter binding kinase assay relative to control.

A short description of series [12]: Toxicity in zebrafish embryos assessed as induction of necrosis by measuring unaffected embryos level at 0.1 uM after 72 hrs (reference value: 100%). Also noted: species or system Danio rerio. Particulars: in vivo.
Series [13] addresses T3, Mitogen-activated protein kinase kinase kinase kinase 2 (Homo sapiens) (UniProt Q12851).
T3 sequence (whole entry): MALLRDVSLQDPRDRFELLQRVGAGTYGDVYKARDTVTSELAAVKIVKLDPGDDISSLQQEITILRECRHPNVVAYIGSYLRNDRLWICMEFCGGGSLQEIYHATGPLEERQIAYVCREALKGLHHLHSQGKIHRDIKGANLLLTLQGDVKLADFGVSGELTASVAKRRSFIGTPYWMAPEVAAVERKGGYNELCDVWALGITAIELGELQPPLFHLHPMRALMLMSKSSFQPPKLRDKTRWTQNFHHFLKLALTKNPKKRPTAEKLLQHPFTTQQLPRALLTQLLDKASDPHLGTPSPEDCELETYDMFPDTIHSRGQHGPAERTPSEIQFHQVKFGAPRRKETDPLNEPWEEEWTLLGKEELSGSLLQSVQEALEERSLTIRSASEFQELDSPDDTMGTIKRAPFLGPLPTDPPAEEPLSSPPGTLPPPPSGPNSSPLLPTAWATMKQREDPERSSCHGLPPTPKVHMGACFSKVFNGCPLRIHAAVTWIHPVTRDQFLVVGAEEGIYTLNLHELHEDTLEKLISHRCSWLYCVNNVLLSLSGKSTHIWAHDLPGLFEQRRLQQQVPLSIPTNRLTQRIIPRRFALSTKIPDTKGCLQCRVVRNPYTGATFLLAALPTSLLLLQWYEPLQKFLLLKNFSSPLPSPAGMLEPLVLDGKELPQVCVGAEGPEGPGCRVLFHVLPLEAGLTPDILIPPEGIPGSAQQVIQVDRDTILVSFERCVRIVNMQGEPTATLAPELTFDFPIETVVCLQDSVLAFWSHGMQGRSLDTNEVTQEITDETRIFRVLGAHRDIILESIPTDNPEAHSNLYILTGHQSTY
The series can be described thus: Inhibition of GCK (unknown origin) assessed as residual enzyme activity at 1 uM by [33P]-ATP filter binding kinase assay relative to control.

Series [14] concerns the target NUAK family SNF1-like kinase 1 (Homo sapiens) (UniProt O60285). The series is described as follows: Inhibition of NUAK1 (unknown origin) by assessed as residual enzyme activity at 1 uM by [33P]-ATP filter binding kinase assay relative to control.

Bounds are passed on as bounds.

T1 sequence (Q9P1W9 whole entry, looked up, the tested form may be a part): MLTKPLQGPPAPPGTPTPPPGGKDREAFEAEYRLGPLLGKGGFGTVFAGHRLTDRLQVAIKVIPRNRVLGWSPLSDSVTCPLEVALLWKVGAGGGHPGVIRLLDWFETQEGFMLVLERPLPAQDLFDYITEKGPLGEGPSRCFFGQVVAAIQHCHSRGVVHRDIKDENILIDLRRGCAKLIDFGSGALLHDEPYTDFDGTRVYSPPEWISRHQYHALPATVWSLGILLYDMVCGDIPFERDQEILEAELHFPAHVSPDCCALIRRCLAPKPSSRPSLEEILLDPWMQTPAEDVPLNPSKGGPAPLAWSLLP
Sequence of NUAK family SNF1-like kinase 1 (Homo sapiens) (O60285 whole entry): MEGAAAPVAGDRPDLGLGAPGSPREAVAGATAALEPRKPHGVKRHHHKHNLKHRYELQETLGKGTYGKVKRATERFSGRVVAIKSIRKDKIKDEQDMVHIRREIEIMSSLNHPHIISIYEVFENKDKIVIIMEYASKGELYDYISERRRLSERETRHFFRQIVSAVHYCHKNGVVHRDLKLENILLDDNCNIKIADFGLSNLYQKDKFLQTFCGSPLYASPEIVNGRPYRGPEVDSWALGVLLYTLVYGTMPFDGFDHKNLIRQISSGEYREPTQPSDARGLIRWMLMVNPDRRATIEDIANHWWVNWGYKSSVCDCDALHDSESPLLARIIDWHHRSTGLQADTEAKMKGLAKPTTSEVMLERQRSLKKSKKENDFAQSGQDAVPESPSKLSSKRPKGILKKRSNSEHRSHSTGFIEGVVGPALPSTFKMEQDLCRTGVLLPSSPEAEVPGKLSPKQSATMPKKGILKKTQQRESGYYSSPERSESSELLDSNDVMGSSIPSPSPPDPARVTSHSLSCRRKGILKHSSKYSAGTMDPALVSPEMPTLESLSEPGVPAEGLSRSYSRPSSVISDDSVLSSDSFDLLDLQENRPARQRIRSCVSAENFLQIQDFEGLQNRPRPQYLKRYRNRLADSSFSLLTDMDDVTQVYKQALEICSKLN

Usually IC50 stands for the concentration that inhibits the measured activity by half. Regarding `COc1cc2c(-c3cnc(-c4ccc[nH]4)o3)c[nH]c2cc1Br`, the survival at 72 h, 140 µM in series [1] worked out at 0%. Further, the IC50 with MDA-MB-231 is more than 30 µM; in the series with JIMT-1, 4.17 µM; in the series on NCI-H460, 2 µM. Besides, in series [2], the microsomal CLint at 3 µM came out at 47 µL/min/mg. Further, the Activity in series [3] was 10%; in [4], 54%; on Aurora kinase B, 33%; in [5] it was 21%; in the series on HT-29 it was “Tde”; in series [6], 100%. The Activity in series [7] was found to be 100%; in [8] it was 54%; in series [9], 95%; in [10] it was 20%; in [11] it was 7%; in series [12], 100%. Also, the results for the Activity in series [13] and in [14] were 31% and 46%, respectively.
